Earlier results as cited in the CATMoS acute toxicity set (Mansouri et al. 2021).
Values joined by “and” are separate entries in the source; they are usually repeats but may differ in a detail not shown here. Equal entries are not always repeated.

Assay: rat acute oral toxicity
Conditions: in vivo
In the case of `COC(=O)C(=O)c1ccccc1`, the LD50 is listed as 6800 mg/kg.
In the case of `COc1ccc(C(CCCc2ccccc2)N(C)C)cc1OC` (stereo unspecified), the LD50 is given as 500 mg/kg.
In the case of `CCCCCCCCCC=O`, the LD50 is given as 3730 mg/kg.
For `COP(=S)(OC)SCSCCOC(N)=O`, the LD50 is listed as 44 mg/kg.
For `OC[C@H]1O[C@@H](O[C@@H]2[C@@H](CO)O[C@](O)(CO)[C@H]2O)[C@H](O)[C@@H](O)[C@H]1O`, the LD50 is given as 18200 mg/kg.
In the case of `Cc1csc2c(Cl)cccc12`, the LD50 is given as 300 mg/kg.
In the case of `Cc1ccc(C(=O)c2ccc(CC(=O)NNCC(=O)N3CCN(C)CC3)n2C)cc1`, the LD50 is listed as 978 mg/kg.
In the case of `CCC(C)(C)c1ccc(Cl)c(OC(=O)NC)c1`, the LD50 is given as 75 mg/kg.
In the case of `CCO[SiH](Cl)OCC`, the LD50 is listed as 6300 mg/kg.
In the case of `C=CSC=C`, the LD50 is given as 170 mg/kg.
For `Cc1cc(Cl)ccc1/N=C/N(C)C`, the LD50 is given as 225 mg/kg.
For `C=CC[C@@H]1C=C(C)C[C@H](C)C[C@H](OC)[C@H]2O[C@@](O)(C(=O)C(=O)N3CCCC[C@H]3C(=O)O[C@H](/C(C)=C/[C@@H]3CC[C@@H](O)[C@H](OC)C3)[C@H](C)[C@@H](O)CC1=O)[C@H](C)C[C@@H]2OC`, the LD50 is given as 134 mg/kg.
For `O=C1CCc2cc(C(=O)CCN3CCC(Cc4ccccc4)CC3)ccc2N1`, the LD50 is listed as 500 mg/kg.
In the case of `Nc1c2c(nc3ccccc13)CCCC2`, the LD50 is given as 70 mg/kg.
In the case of `CC(=O)Nc1ccc(N=NN(C)C)cc1`, the LD50 is given as 510 mg/kg.
In the case of `CNC(=O)Oc1cc(C)c(NC(=O)O)c(C)c1`, the LD50 is listed as 71 mg/kg.
For `CCN(CC)C(=O)c1nnn(-c2ccc(N)cc2)c1C`, the LD50 is listed as 494 mg/kg.
For `CC(C)NP(O)(=S)Oc1cc(Cl)c(Cl)cc1Cl` (stereo unspecified), the LD50 is given as 31 mg/kg.
For `Cc1cc(=O)n(CSP(=S)(OC(C)C)OC(C)C)nc1Cl`, the LD50 is listed as 110 mg/kg.
For `O=C(CCC(=O)OC1CCCCC1)OC1CCCCC1`, the LD50 is listed as 12000 mg/kg.
For `Nc1nc(=S)ss1`, the LD50 is given as 3050 mg/kg.
In the case of `O=C=Nc1cccc(Cl)c1`, the LD50 is listed as 4200 mg/kg.
For `O=C(CCCl)OC1=C(OC(=O)CCCl)C(=O)OC1=O`, the LD50 is given as 7000 mg/kg.
For `CCOc1cc(Cc2cnc(N)nc2N)cc(OCC)c1-n1cccc1`, the LD50 is listed as 1420 mg/kg.
In the case of `C[N+]1(C)CCCCC1COC(=O)C(O)(c1ccccc1)c1ccccc1` (stereo unspecified), the LD50 is listed as 5080 mg/kg.
For `COc1cc(C(=O)c2ccc(Cl)cc2)cc(OC)c1OCCN1CCOCC1`, the LD50 is listed as 1290 mg/kg.
For `CCOP(=S)(OCC)OCCS(=O)CC` (stereo unspecified), the LD50 is given as 100 mg/kg.
In the case of `O=C(CF)NNc1ccccc1`, the LD50 is listed as 9.1 mg/kg.
For `O=C(O)C(F)(F)C(F)(F)C(F)(F)F`, the LD50 is listed as 2140 mg/kg.
In the case of `CC1CN1P(=O)(N1CC1C)N1CC1C` (stereo unspecified), the LD50 is listed as 136 mg/kg.
For `Cc1cc(-n2c(C)nc3ccccc3c2=O)cc(C)c1O`, the LD50 is given as 230 mg/kg.
In the case of `C=CCN(CC=C)N=O`, the LD50 is given as 800 mg/kg.
In the case of `CCCCN(COC(C)=O)N=O`, the LD50 is listed as 1500 mg/kg.
For `CNC(=O)Oc1ccccc1C1OCCO1`, the LD50 is given as 25 mg/kg.
For `C=CCSC(C)C1(CC=C)C(=O)N=C(O)NC1=O` (stereo unspecified), the LD50 is listed as 346 mg/kg.
For `CN(C)c1ccc(C=C2C(=O)N=C3c4ccccc4N=CN23)cc1`, the LD50 is given as 355 mg/kg.
For `CCOP(=O)(OC=C(Cl)Cl)OCCCl` (stereo unspecified), the LD50 is listed as 5 mg/kg.
In the case of `CC1Oc2ccccc2CC1N(C)C` (stereo unspecified), the LD50 is given as 812 mg/kg.
For `O=C1c2ccc3c4c(ccc(c24)C(=O)C1(Cl)Cl)CC3`, the LD50 is listed as 10600 mg/kg.
For `CC(Cl)(Cl)C(=O)OCCOc1cc(Cl)c(Cl)cc1Cl`, the LD50 is listed as 1000 mg/kg.
For `Clc1ccc([Si]23OCCN(CCO2)CCO3)cc1`, the LD50 is given as 520 mg/kg.
For `CC(=Nc1c(I)cc(I)c(C(=O)NCC(C)C(=O)O)c1I)N1CCOCC1` (stereo unspecified), the LD50 is given as 15000 mg/kg and 7000 mg/kg.
In the case of `O=C(Nc1ccccc1)Nc1cnns1`, the LD50 is given as 5350 mg/kg.
For `N#CCCNCCC#N`, the LD50 is listed as 2700 mg/kg.
For `Cc1cc(=O)oc2cc(O)ccc12`, the LD50 is listed as 3850 mg/kg.
For `CNC(=O)ON=C1SCCOC1(C)C`, the LD50 is given as 0.6 mg/kg.
For `CNC(=O)Oc1cc(C)c(S(C)=O)c(C)c1` (stereo unspecified), the LD50 is given as 42 mg/kg.
For `COc1cc2ccc(=O)oc2cc1OC`, the LD50 is listed as 292 mg/kg.
In the case of `COc1ccccc1N1CCN(CCCNc2cc(=O)n(C)c(=O)n2C)CC1`, the LD50 is listed as 520 mg/kg.
In the case of `CCOC(C(=O)N(C)CCN(C)C)(c1ccccc1)c1ccccc1`, the LD50 is given as 565 mg/kg.
In the case of `CCCCCCCCCCCCCCCCCC1=NCCN1`, the LD50 is listed as 3170 mg/kg and 4600 mg/kg and 1970 mg/kg.
In the case of `NC1=C(Cl)C(=O)c2ccccc2C1=O`, the LD50 is given as 1360 mg/kg.
In the case of `ClC1=C(Cl)[C@]2(Cl)[C@@H]3C[C@@H](Cl)[C@@H](Cl)[C@@H]3[C@@]1(Cl)C2(Cl)Cl` (racemic), the LD50 is given as 500 mg/kg.
For `COc1ccc(OC)c(CC(C)N)c1` (racemic), the LD50 is given as 171 mg/kg.
For `CC(C)(CO)C(O)C#N` (stereo unspecified), the LD50 is given as 310 mg/kg.
In the case of `CC(C)(C)N(Cl)Cl`, the LD50 is listed as 780 mg/kg.
For `CCCCOCCOC(=O)CCCCC(=O)OCCOCCCC`, the LD50 is listed as 1100 mg/kg.
In the case of `O=S1(=O)CS(=O)(=O)OCO1`, the LD50 is given as 300 mg/kg.
For `Nc1c(S(=O)(=O)O)cc(Nc2ccc(S(=O)(=O)O)c(Nc3nc(Cl)nc(Cl)n3)c2)c2c1C(=O)c1ccccc1C2=O`, the LD50 is listed as 8980 mg/kg.
In the case of `CC(CO)Oc1ccccc1` (stereo unspecified), the LD50 is given as 2830 mg/kg.
For `CCN(CC)CCOC(=O)c1ccc(N)cc1`, the LD50 is given as 200 mg/kg.
